In ChEMBL document CHEMBL1121858, “Synthesis and antimalarial activity of 8-[(1-alkyl-4-aminobutyl)amino]-6-methoxy-4-methylquinolines” (1981):
Several values for one entry are separate records, joined by “and”; a condition that tells them apart may be missing. Equal values may be shown once.

Assays:
Type in all cases: functional
Mus musculus [1] = assay: Mean survival time of Plasmodium berghei infected mice (Mus musculus) after administration of single dose of 160 mg/kg intravenously; conditions: route intravenous
Mus musculus [2] = assay: Mean survival time of Plasmodium berghei infected mice (Mus musculus) after administration of single dose of 20 mg/kg intravenously; conditions: route intravenous
Mus musculus [3] = assay: Mean survival time of Plasmodium berghei infected mice (Mus musculus) after administration of single dose of […] intravenously
Mus musculus [4] = assay: Mean survival time of Plasmodium berghei infected mice (Mus musculus) after administration of single dose of 40 mg/kg intravenously; conditions: route intravenous
Mus musculus [5] = assay: Mean survival time of Plasmodium berghei infected mice (Mus musculus) after administration of single dose of 640 mg/kg intravenously; conditions: route intravenous
Mus musculus [6] = assay: Mean survival time of Plasmodium berghei infected mice (Mus musculus) after administration of single dose of 80 mg/kg intravenously; conditions: route intravenous

Structure (SMILES)	MST (Mus musculus [1]) [days]	MST (Mus musculus [2]) [days]	MST (Mus musculus [3]) [days]	MST (Mus musculus [4]) [days]	MST (Mus musculus [5]) [days]	MST (Mus musculus [6]) [days]	MST (Mus musculus [1]; 160 mg/kg)	MST (Mus musculus [2]; 20 mg/kg)	MST (Mus musculus [4]; 40 mg/kg)	MST (Mus musculus [6]; 80 mg/kg)
CCC(CCCN)Nc1cc(OC)cc2c(C)ccnc12.O=P(O)(O)O (centres undefined)	11.5	7.3	5	7.9	5	9.7				
COc1cc(NC(CCCN)C(C)C)c2nccc(C)c2c1.O=P(O)(O)O (centres undefined)	7.8	3.4	7.2	5.2	1	6.8				
CCCC(CCCN)Nc1cc(OC)cc2c(C)ccnc12.O=P(O)(O)O (centres undefined)	6.3	3.1	9.1	4.1	12.3	5.7				
COc1cc(NC(C)CCCN)c2ncccc2c1.O=P(O)(O)O.O=P(O)(O)O (centres undefined) [PRIMAQUINE PHOSPHATE]			5		5		7 days and 10.8 days	2.2 days and 4 days	4.2 days and 5 days	6.4 days and 9.4 days
